According to the kinase profiling compilation of Christmann-Franck et al. (2016):

How the values were obtained:
Assay in all cases: KINOMEscan competition binding
Conditions in all cases: compound 10.0 µM
FGR (human) = FGR (human) (UniProt P09769)
GSK3B (human) = GSK3B (human) (UniProt P49841)
DDR2 (human) = DDR2 (human) (UniProt Q16832)
BMPR1A (human) = BMPR1A (human) (UniProt P36894)
TGFBR2 (human) = TGFBR2 (human) (UniProt P37173)
RPS6KA1 KD1 (human) = RPS6KA1 KD1 (human) (UniProt Q15418)
PIM1 (human) = PIM1 (human) (UniProt P11309)
MKNK1 (human) = MKNK1 (human) (UniProt Q9BUB5)
MAP2K4 (human) = MAP2K4 (human) (UniProt P45985)
SIK1 (human) = SIK1 (human) (UniProt P57059)
AXL (human) = AXL (human) (UniProt P30530)
GSK3A (human) = GSK3A (human) (UniProt P49840)
MAPKAPK2 (human) = MAPKAPK2 (human) (UniProt P49137)
CDK14 (human) = CDK14 (human) (UniProt O94921)
NTRK1 (human) = NTRK1 (human) (UniProt P04629)
BRSK2 (human) = BRSK2 (human) (UniProt Q8IWQ3)
MYLK3 (human) = MYLK3 (human) (UniProt Q32MK0)
[1] = biological target: TYK2 JH1 catalytic (human) (UniProt P29597)
RIOK1 (human) = RIOK1 (human) (UniProt Q9BRS2)
MAP4K2 (human) = MAP4K2 (human) (UniProt Q12851)
ROCK2 (human) = ROCK2 (human) (UniProt O75116)
FGFR1 (human) = FGFR1 (human) (UniProt P11362)
PHKG1 (human) = PHKG1 (human) (UniProt Q16816)
MERTK (human) = MERTK (human) (UniProt Q12866)
MET (human) = MET (human) (UniProt P08581)
PIM3 (human) = PIM3 (human) (UniProt Q86V86)
BMX (human) = BMX (human) (UniProt P51813)
SRC (human) = SRC (human) (UniProt P12931)
NTRK2 (human) = NTRK2 (human) (UniProt Q16620)
ALK (human) = ALK (human) (UniProt Q9UM73)
BMPR1B (human) = BMPR1B (human) (UniProt O00238)
PIP4K2B (human) = PIP4K2B (human) (UniProt P78356)
MAP3K11 (human) = MAP3K11 (human) (UniProt Q16584)
SRPK3 (human) = SRPK3 (human) (UniProt Q9UPE1)
[2] = system: EIF2AK4 KD2 (human), Q9P2K8 [S808G]
DCLK3 (human) = DCLK3 (human) (UniProt Q9C098)
PDPK1 (human) = PDPK1 (human) (UniProt O15530)
TEK (human) = TEK (human) (UniProt Q02763)
[3] = system: ABL1 (human), P00519 [E255K]
TAOK3 (human) = TAOK3 (human) (UniProt Q9H2K8)
AURKB (human) = AURKB (human) (UniProt Q96GD4)
MUSK (human) = MUSK (human) (UniProt O15146)

ABL1 (human), P00519 [E255K], sequence (P00519 whole entry E255K, looked up): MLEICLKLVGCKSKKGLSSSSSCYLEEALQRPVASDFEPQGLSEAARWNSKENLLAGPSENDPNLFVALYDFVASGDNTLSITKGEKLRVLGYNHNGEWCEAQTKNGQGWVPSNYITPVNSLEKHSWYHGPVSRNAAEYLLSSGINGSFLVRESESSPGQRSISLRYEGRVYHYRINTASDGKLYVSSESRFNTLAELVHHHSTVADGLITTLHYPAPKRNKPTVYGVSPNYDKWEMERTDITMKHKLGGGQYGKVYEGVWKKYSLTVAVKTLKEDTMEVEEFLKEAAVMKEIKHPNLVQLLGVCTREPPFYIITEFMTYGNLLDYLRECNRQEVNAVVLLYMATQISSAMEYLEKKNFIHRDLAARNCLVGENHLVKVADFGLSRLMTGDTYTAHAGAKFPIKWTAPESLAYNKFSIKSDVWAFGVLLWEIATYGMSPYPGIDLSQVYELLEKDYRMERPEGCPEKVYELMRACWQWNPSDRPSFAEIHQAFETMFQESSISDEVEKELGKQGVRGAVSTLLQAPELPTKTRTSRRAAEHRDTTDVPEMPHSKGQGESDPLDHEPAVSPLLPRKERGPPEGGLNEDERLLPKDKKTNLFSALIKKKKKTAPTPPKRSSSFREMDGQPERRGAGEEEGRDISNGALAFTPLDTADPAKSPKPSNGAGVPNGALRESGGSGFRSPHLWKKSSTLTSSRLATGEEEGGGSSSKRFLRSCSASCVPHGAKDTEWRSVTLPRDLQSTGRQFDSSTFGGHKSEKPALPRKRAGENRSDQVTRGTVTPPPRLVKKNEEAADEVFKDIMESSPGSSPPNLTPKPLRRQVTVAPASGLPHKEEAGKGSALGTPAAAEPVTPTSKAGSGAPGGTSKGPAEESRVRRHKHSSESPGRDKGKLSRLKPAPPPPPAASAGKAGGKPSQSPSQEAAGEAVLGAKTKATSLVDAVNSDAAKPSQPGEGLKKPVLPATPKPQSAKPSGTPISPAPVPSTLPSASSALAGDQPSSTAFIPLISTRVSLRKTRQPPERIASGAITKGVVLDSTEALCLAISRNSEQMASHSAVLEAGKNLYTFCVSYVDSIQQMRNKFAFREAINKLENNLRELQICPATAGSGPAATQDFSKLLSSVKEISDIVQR
MET (human), sequence (P08581 whole entry, looked up): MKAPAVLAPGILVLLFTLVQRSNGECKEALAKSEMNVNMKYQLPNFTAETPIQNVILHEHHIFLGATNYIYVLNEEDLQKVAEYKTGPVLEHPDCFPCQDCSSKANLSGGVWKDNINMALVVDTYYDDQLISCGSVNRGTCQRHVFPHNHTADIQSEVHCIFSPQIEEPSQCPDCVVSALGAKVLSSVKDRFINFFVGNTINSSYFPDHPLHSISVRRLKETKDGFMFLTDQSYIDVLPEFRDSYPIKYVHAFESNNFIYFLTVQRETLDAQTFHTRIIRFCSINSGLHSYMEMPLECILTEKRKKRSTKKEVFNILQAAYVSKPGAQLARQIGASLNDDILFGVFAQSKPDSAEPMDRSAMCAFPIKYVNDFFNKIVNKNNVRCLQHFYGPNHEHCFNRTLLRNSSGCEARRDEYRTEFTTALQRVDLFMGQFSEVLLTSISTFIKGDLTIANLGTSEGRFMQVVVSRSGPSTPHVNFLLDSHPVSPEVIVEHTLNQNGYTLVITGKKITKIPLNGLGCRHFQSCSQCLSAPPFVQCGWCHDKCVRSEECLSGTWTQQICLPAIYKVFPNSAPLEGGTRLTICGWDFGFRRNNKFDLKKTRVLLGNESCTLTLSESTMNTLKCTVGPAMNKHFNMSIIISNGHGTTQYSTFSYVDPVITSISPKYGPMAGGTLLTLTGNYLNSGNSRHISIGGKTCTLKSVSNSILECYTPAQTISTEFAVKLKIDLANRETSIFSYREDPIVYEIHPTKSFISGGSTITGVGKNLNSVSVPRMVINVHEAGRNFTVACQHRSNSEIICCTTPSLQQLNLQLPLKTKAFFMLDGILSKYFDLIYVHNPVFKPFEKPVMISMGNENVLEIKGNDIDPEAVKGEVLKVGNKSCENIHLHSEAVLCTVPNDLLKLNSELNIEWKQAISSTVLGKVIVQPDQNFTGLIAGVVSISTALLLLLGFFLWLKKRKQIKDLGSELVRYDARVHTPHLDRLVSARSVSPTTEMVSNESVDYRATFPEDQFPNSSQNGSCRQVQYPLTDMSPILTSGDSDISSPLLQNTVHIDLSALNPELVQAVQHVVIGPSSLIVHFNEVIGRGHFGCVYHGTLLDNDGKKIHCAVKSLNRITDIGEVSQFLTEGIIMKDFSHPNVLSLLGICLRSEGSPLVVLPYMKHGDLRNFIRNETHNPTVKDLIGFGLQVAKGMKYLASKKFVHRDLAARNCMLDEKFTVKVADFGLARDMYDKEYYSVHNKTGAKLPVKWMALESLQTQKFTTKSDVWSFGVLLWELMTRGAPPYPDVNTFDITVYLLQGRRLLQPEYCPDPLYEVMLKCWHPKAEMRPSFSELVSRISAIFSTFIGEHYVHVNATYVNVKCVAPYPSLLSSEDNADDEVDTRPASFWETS
GSK3B (human), sequence (P49841 whole entry, looked up): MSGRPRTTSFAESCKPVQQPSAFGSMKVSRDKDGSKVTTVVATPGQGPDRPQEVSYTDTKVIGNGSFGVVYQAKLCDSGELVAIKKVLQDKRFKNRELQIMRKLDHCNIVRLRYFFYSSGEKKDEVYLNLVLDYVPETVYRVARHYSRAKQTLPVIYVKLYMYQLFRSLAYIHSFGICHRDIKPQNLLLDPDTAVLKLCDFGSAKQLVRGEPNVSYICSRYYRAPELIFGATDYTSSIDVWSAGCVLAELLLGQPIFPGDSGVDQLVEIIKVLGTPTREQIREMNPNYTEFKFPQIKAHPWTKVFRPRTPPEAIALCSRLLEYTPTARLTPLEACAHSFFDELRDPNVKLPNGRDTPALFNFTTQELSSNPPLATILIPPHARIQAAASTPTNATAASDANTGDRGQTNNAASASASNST
FGFR1 (human), sequence (P11362 whole entry, looked up): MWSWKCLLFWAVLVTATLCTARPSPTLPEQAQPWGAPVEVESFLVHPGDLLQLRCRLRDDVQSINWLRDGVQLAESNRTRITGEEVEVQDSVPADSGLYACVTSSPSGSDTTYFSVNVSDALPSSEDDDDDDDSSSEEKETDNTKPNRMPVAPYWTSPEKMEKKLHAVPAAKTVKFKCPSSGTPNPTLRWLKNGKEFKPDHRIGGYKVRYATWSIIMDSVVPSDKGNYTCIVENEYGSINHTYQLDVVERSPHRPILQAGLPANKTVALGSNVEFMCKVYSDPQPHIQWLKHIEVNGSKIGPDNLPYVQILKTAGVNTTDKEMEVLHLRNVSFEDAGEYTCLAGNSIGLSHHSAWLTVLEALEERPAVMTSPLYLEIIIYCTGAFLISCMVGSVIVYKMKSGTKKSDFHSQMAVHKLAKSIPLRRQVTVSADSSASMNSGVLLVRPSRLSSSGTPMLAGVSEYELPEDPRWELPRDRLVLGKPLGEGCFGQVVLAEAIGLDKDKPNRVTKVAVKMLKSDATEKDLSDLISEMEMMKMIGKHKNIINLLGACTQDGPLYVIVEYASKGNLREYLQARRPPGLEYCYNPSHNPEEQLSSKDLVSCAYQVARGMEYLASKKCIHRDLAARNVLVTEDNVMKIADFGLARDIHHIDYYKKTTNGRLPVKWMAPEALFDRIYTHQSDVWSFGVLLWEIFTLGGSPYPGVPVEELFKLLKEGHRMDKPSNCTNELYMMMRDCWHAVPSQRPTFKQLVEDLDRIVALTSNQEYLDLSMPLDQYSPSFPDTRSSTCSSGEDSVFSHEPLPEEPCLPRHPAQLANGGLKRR
AURKB (human), sequence (Q96GD4 whole entry, looked up): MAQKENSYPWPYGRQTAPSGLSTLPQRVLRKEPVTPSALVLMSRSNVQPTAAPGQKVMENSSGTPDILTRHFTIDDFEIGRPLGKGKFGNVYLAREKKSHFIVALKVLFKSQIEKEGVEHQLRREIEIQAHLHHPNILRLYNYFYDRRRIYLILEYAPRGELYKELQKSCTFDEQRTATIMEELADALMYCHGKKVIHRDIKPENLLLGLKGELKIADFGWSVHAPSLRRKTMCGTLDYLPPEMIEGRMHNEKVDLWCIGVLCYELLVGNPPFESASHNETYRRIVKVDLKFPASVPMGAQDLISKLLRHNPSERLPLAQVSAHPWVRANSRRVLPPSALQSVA
MAP2K4 (human), sequence (P45985 whole entry, looked up): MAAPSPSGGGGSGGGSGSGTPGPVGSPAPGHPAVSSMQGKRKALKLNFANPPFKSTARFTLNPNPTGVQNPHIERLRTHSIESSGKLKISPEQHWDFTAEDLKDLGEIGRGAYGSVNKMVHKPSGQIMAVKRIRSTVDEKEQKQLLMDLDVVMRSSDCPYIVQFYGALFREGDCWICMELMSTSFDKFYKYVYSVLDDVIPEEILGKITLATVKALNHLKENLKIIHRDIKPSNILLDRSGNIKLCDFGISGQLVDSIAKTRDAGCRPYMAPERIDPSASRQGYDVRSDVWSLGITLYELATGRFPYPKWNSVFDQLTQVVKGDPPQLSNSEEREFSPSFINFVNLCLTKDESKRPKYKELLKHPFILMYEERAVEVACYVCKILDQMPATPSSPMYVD
CDK14 (human), sequence (O94921 whole entry, looked up): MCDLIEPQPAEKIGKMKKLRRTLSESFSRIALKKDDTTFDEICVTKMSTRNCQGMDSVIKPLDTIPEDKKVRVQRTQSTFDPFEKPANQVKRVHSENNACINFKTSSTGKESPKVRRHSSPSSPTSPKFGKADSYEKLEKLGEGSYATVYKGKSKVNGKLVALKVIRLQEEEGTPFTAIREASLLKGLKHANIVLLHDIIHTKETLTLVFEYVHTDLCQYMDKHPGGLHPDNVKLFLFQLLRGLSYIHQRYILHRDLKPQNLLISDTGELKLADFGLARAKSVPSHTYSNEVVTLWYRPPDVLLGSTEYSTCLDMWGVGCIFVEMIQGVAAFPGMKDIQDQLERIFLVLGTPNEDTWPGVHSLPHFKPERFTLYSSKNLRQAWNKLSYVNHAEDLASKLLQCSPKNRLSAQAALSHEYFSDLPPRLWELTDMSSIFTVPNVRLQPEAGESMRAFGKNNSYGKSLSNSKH

CCOc1cc(N2CCC(N3CCCCC3)CC2)ccc1Nc1nc(Nc2ccccc2S(=O)(=O)C(C)C)c2cn[nH]c2n1
kinase still bound, per cent of control (FGR (human)): 82% | kinase still bound, per cent of control (GSK3B (human)): 84% | kinase still bound, per cent of control (DDR2 (human)): 93% | kinase still bound, per cent of control (BMPR1A (human)): 100% | kinase still bound, per cent of control (TGFBR2 (human)): 100% | kinase still bound, per cent of control (RPS6KA1 KD1 (human)): 1.8% | kinase still bound, per cent of control (PIM1 (human)): 100% | kinase still bound, per cent of control (MKNK1 (human)): 53% | kinase still bound, per cent of control (MAP2K4 (human)): 8.2% | kinase still bound, per cent of control (SIK1 (human)): 100% | kinase still bound, per cent of control (AXL (human)): 100% | kinase still bound, per cent of control (GSK3A (human)): 100% | kinase still bound, per cent of control (MAPKAPK2 (human)): 100% | kinase still bound, per cent of control (CDK14 (human)): 100% | kinase still bound, per cent of control (NTRK1 (human)): 72% | kinase still bound, per cent of control (BRSK2 (human)): 94% | kinase still bound, per cent of control (MYLK3 (human)): 100% | kinase still bound, per cent of control [1]: 87% | kinase still bound, per cent of control (RIOK1 (human)): 100% | kinase still bound, per cent of control (MAP4K2 (human)): 97% | kinase still bound, per cent of control (ROCK2 (human)): 25% | kinase still bound, per cent of control (FGFR1 (human)): 100% | kinase still bound, per cent of control (PHKG1 (human)): 24% | kinase still bound, per cent of control (MERTK (human)): 100% | kinase still bound, per cent of control (MET (human)): 100% | kinase still bound, per cent of control (PIM3 (human)): 100% | kinase still bound, per cent of control (BMX (human)): 100% | kinase still bound, per cent of control (SRC (human)): 69% | kinase still bound, per cent of control (NTRK2 (human)): 59% | kinase still bound, per cent of control (ALK (human)): 34% | kinase still bound, per cent of control (BMPR1B (human)): 49% | kinase still bound, per cent of control (PIP4K2B (human)): 100% | kinase still bound, per cent of control (MAP3K11 (human)): 100% | kinase still bound, per cent of control (SRPK3 (human)): 100% | kinase still bound, per cent of control [2]: 100% | kinase still bound, per cent of control (DCLK3 (human)): 100% | kinase still bound, per cent of control (PDPK1 (human)): 100% | kinase still bound, per cent of control (TEK (human)): 100% | kinase still bound, per cent of control [3]: 67% | kinase still bound, per cent of control (TAOK3 (human)): 36% | kinase still bound, per cent of control (AURKB (human)): 100% | kinase still bound, per cent of control (MUSK (human)): 100%
